Results reported in PMC3366278 (Biomaterials, 2012).
Where a SMILES comes first, the peptide text is derived from it.

Target: T1, recombinant human E-selectin (Homo sapiens, UniProt P16581)
T1 sequence (P16581 22-556 limits assumed): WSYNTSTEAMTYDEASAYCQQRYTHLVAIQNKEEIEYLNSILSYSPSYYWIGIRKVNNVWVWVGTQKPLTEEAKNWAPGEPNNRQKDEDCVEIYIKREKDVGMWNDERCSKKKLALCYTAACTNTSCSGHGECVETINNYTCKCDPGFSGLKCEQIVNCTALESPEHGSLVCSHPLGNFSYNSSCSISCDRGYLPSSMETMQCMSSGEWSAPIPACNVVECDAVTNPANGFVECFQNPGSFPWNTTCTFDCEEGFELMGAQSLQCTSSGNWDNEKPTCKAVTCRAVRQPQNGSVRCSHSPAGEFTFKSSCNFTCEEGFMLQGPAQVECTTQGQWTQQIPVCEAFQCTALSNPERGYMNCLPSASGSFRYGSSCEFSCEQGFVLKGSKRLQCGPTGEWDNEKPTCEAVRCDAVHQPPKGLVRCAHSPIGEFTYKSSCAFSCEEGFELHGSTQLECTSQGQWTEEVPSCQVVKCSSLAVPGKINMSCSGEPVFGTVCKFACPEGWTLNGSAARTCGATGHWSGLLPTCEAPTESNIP
Test: Surface plasmon resonance
Assay type: binding
Conditions: SPR, peptide M versus peptide K

koff relative to peptide K (times faster): 10 times
Structure (SMILES): CC[C@H](C)[C@H](NC(=O)[C@H](CC(=O)O)NC(=O)[C@H](CO)NC(=O)CNC(=O)[C@@H](N)CS)C(=O)N[C@H](C(=O)N[C@@H](Cc1c[nH]c2ccccc12)C(=O)N[C@@H](CC(=O)O)C(=O)N[C@@H](CCC(N)=O)C(=O)N[C@@H](CC(C)C)C(=O)N[C@@H](Cc1c[nH]c2ccccc12)C(=O)N[C@@H](CC(=O)O)C(=O)N[C@@H](CC(C)C)C(=O)N[C@@H](CCSC)C(=O)O)[C@@H](C)O [Peptide M, CGSDITWDQLWDLM] (H-CGSDITWDQLWDLM-OH)
